Usually MIC99 stands for an inhibitory concentration at the 99% level, which refers to growth in some studies and to a panel of isolates in others. Higher therefore signals lower susceptibility. The MIC is the least concentration at which growth counts as inhibited.

In brackets after ≈: the same amount, converted by molar mass. Several values for one entry are separate records, joined by “and”; a condition that tells them apart may be missing. Equal entries are not always repeated.

For test [1], the system named is M. tuberculosis NTB1. The format is cell-based, Mycobacterium tuberculosis.
Test [2] concerns M. tuberculosis H37Rv. The note with it: stated in the Introduction; ref Makarov et al, 2009; cited from earlier work.

Take `C[C@H]1COC2(CCN(c3nc(=O)c4cc(C(F)(F)F)cc([N+](=O)[O-])c4s3)CC2)O1` [BTZ043, 2-[(2S)-2-methyl-1,4-dioxa-8-azaspiro[4.5]dec-8-yl]-8-nitro-6-(trifluoromethyl)-4H-1,3-benzothia-zin-4-one]: in test [1], the MIC99 was 25 µg/mL (≈ 58 µM) and the “fold increased resistance conferred by the Cys387Ser mutation in DprE1” value is recorded as > 10 000 fold. The minimal inhibitory concentration (MIC) in test [2] was 1 ng/ml and 2.3 nM.

For `O=c1nc(N2CCN(CC3CCCCC3)CC2)sc2c([N+](=O)[O-])cc(C(F)(F)F)cc12` [PBTZ169], in test [1], the MIC99 is more than 100 µg/mL and the “fold increased resistance conferred by the Cys387Ser mutation in DprE1” value is on record as > 10 000 fold. In test [1], `CO[C@H]1/C=C/O[C@@]2(C)Oc3c(C)c(O)c4c(O)c(c(/C=N/N5CCN(C)CC5)c(O)c4c3C2=O)NC(=O)/C(C)=C\C=C\[C@H](C)[C@H](O)[C@@H](C)[C@@H](O)[C@@H](C)[C@H](OC(C)=O)[C@@H]1C` [RIF, rifampicin] displayed an MIC99 of 0.001 µg/mL (≈ 0.00122 µM).

Take moxifloxicin [MXF]: the MIC99 in test [1] is 0.03 µg/mL.

The values are drawn from paper PMC3958311 (EMBO Molecular Medicine, 2014).
